Where a SMILES comes first, the peptide text is derived from it. Where no end group is shown, it is not given here.
How the values were obtained:
[1] = tested on: α-glucosidase; test: Simulated gastrointestinal digestion in vitro, residual α-glucosidase inhibitory activity; type: in vitro ADME; conditions: 37 °C; for loss of α-glucosidase inhibitory activity after SGID: SGF 120 min then SIF 120 min; for loss of α-glucosidase inhibitory activity after simulated gastric digestion (SGD): SGF, 120 min
Protocol: (§1) The α-glucosidase inhibition activity was performed as described in the literature. In a 96-well enzyme plate, 40 μL of PBS buffer solution (pH 6.86, 0.1 M), 40 μL of sample solution, and 80 μL of α-glucosidase solution (0.2 U/mL) were added, mixed well, and reacted at 37 °C for 15 min. Next, 80 μL of 2.5 mM p-nitrophenyl-α-D-glucopyranoside (pNPG, 0.1 M, pH 6.8 in PBS) was added, mixed well, and reacted at 37 °C for 20 min. Finally, 150 μL of 0.2 M Na2CO3 solution was added to stop the reaction, which was then measured for absorbance values at 405 nm A1. Data were collected for three parallel experiments. (1) α-glucosidase inhibitory activity (%) = A0− (A 1− A2)/ A0 × 100% where A0 is the absorbance of an equal amount of PBS buffer in place of the sample; A2 is the absorbance of an equal amount of PBS buffer in place of the α-glucosidase solution and pNPG solution.
The method of simulated gastrointestinal digestion (SGID) follows the previous method with slight modifications. Simulated gastric fluid (SGFs) and simulated intestinal fluid (SIFs) are both purchased from Shanghai Yuanye Biotechnology Co., Ltd., as previously mentioned. In brief, the synthesized peptide LLVLYYEY and LLLLPSYSEF was pre-dissolved to 4 mg/mL in pure water. LLVLYYEY and LLLLPSYSEF aqueous solution was mixed with SGFs (1:1, v/v) and digested at 37 °C for 120 min. SIFs (1:1, v/v) was then mixed and the mixture was incubated for 120 min. After 120 min of incubation, the pH was adjusted to 7 by NaOH (1M) to stop the simulated gastric digestion (SGD) phase; after 240 min of incubation the simulated intestinal digestion (SID) phase was stopped by a boiling water bath for 10 min.

[2] = biological target: α-glucosidase; test: α-glucosidase inhibition assay in vitro (pNPG substrate); type: biochemical; conditions: synthesized peptides; read-out: α-glucosidase Inhibitory Activity (IC50)
Protocol: as §1

Compound | loss of α-glucosidase inhibitory activity after SGID [1] | loss of α-glucosidase inhibitory activity after simulated gastric digestion (SGD) [1] | IC50 [2] [mM]
LLVLYYEY [LLVLYYEY, Leu-Leu-Val-Leu-Tyr-Tyr-Glu-Tyr] | significant loss of activity | essentially no loss | –
C[C@H](N)C(=O)N[C@H](C(=O)N[C@@H](CC(N)=O)C(=O)N1CCC[C@H]1C(=O)N1CCC[C@H]1C(=O)N[C@@H](CS)C(=O)N[C@@H](CS)C(=O)N[C@@H](CCC(N)=O)C(=O)N1CCC[C@H]1C(=O)O)[C@@H](C)O [ATNPPCCQP, Ala-Thr-Asn-Pro-Pro-Cys-Cys-Gln-Pro] (H-ATNPPCCQP-OH) | – | – | > 10
CC(C)C[C@H](N)C(=O)N[C@@H](CS)C(=O)N[C@@H](CC(=O)O)C(=O)N[C@@H](CCC(N)=O)C(=O)N[C@@H](CS)C(=O)N1CCC[C@H]1C(=O)N1CCC[C@H]1C(=O)N[C@@H](Cc1c[nH]cn1)C(=O)N[C@@H](C)C(=O)O [LCDQCPPHA, Leu-Cys-Asp-Gln-Cys-Pro-Pro-His-Ala] (H-LCDQCPPHA-OH) | – | – | 4.32
LLLLPSYSEF [LLLLPSYSEF, Leu-Leu-Leu-Leu-Pro-Ser-Tyr-Ser-Glu-Phe] | significant loss of activity | essentially no loss | –
